The target in one assay is T1, TF-VIIa (Homo sapiens, UniProt P08709).
T1 construct: 2nM recombinant human factor VIIa; purchased American Diagnostica, Greenwich CT; host or cells: soluble TF made in house in E. coli
As to the kind of experiment: TF-VIIa Assay. It counts as biochemical.

In the next assay the target is Human factor Xa (Homo sapiens, UniProt P00742). In words: Xa Assay. The following applies: for IC50: read-out: IC50 or % Inhibition Factor Xa (30 µM), cells given as a plain number (IC50).
The mark [1] stands for this setting: read-out: IC50 or % Inhibition TF-VIIa (30 µM); cells given as a plain number (IC50).
Setting [2] is: cells given as a plain number (IC50); read-out: IC50 or % Inhibition TF-VIIa (30 µM).

The values below come from patent EP1202975B1, “SUBSTITUTED POLYCYCLIC ARYL AND HETEROARYL PYRAZINONES USEFUL FOR SELECTIVE INHIBITION OF THE COAGULATION CASCADE” (Pharmacia Corporation, priority 1999, dated 2000).

Structures are written as SMILES. Like-named read-outs stand apart in the source and are kept apart here.

T1 sequence (P08709 213-466 limits assumed): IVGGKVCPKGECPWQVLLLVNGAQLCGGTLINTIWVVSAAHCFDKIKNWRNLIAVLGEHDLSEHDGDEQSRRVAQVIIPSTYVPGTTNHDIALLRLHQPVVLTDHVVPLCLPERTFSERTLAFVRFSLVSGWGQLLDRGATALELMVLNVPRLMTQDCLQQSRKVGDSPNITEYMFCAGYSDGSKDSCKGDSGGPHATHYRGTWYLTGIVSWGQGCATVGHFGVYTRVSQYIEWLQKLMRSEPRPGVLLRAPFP
T1 sequence (P08709 61-212 limits assumed): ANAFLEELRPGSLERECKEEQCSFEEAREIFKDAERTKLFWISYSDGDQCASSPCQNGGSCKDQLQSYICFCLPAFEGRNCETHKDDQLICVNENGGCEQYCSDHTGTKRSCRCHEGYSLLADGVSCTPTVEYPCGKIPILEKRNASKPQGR
T1 sequence (P13726 33-251 partner limits assumed): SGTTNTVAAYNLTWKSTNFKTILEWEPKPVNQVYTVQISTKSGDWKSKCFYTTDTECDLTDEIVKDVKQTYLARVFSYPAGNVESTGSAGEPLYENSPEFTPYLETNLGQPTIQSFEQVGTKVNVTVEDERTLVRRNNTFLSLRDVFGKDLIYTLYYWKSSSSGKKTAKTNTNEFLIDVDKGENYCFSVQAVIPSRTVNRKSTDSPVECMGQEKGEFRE
Human factor Xa, sequence (P00742 235-488 limits assumed): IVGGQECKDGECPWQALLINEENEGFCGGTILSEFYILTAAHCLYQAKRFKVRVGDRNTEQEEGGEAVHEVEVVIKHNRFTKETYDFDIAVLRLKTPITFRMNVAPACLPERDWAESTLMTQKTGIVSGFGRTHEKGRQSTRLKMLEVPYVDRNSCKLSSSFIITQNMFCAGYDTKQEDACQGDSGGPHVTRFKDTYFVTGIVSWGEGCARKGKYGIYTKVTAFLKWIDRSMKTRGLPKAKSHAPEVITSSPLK
Human factor Xa, sequence (P00742 41-179 limits assumed): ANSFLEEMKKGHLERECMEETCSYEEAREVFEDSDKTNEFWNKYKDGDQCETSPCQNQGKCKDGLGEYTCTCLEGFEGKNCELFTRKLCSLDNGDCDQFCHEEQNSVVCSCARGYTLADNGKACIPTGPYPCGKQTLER

In general, IC50 refers to the midpoint of a concentration-inhibition curve. For `N=C(N)c1ccc(CNC(=O)Cn2c(-c3cccc(F)c3)c(Cl)nc(NCc3ccccc3)c2=O)cc1` [1515-09], the 50% inhibitory concentration (IC50) on TF-VIIa (setting [1]) was 4.1 µM; on Human factor Xa it was above 30 µM.
In the case of `N=C(N)c1ccc(CNC(=O)Cn2c(-c3cccc(Br)c3)c(Cl)nc(NCc3ccccc3)c2=O)cc1` [1515-10], the IC50 on TF-VIIa (setting [1]) was 5.7 µM; on Human factor Xa, above 30 µM.
For `N=C(N)c1ccc(CNC(=O)Cn2c(-c3ccccc3F)c(Cl)nc(NCc3ccccc3)c2=O)cc1` [1515-11], in that order: 4.3 µM and above 30 µM.
On to `N=C(N)c1ccc(CNC(=O)Cn2c(-c3ccccc3C(F)(F)F)c(Cl)nc(NCc3ccccc3)c2=O)cc1` [1515-12], for which the figures for the IC50 at TF-VIIa (setting [1]) and on Human factor Xa were 6.3 µM and above 30 µM, respectively.
For `COc1ccccc1-c1c(Cl)nc(NC2CCC2)c(=O)n1CC(=O)NCc1ccc(C(=N)N)cc1` [1515-14], in that order: 2.9 µM and above 30 µM.
In the same order, the values of `N=C(N)c1ccc(CNC(=O)Cn2c(-c3ccccc3Cl)c(Cl)nc(NC3CCC3)c2=O)cc1` [1515-16] are 8.8 µM and above 30 µM.
Turning to `COc1cccc(-c2c(Cl)nc(NC3CCC3)c(=O)n2CC(=O)NCc2ccc(C(=N)N)cc2)c1` [1515-17], the IC50 at TF-VIIa (setting [1]) was 4.4 µM; on Human factor Xa, above 30 µM.
For `N=C(N)c1ccc(CNC(=O)Cn2c(-c3cccs3)c(Cl)nc(NC3CCC3)c2=O)cc1` [1515-18], the figures for the IC50 on TF-VIIa (setting [1]) and on Human factor Xa were 0.6 µM and above 30 µM, respectively.
In the same order, the values of `N=C(N)c1ccc(CNC(=O)Cn2c(-c3ccc(F)cc3)c(Cl)nc(NC3CCC3)c2=O)cc1` [1515-19] are 24.2 µM and above 30 µM.
As to `N=C(N)c1ccc(CNC(=O)Cn2c(-c3ccc(C(F)(F)F)cc3)c(Cl)nc(NC3CCC3)c2=O)cc1` [1515-20], on TF-VIIa, the “IC50 or % Inhibition TF-VIIa (30 µM)” value came out at 32%. The IC50 at Human factor Xa is above 30 µM.
As to `N=C(N)c1ccc(CNC(=O)Cn2c(-c3cccc(Br)c3)c(Cl)nc(NC3CCC3)c2=O)cc1` [1515-22], the IC50 on TF-VIIa (setting [2]) is 4.2 µM; on Human factor Xa it was above 30 µM.
`N=C(N)c1ccc(CNC(=O)Cn2c(-c3ccccc3F)c(Cl)nc(NC3CCC3)c2=O)cc1` [1515-23]: the IC50 was 6.2 µM at TF-VIIa (setting [1]) and above 30 µM on Human factor Xa.
In the same order, the values of `N=C(N)c1ccc(CNC(=O)Cn2c(-c3ccccc3C(F)(F)F)c(Cl)nc(NC3CCC3)c2=O)cc1` [1515-24] are 1.6 µM and above 30 µM.
Regarding `N=C(N)c1ccc(CNC(=O)Cn2c(-c3cccc(C(F)(F)F)c3)c(Cl)nc(NCCc3ccccc3)c2=O)cc1` [1515-25], the figures for the IC50 on TF-VIIa (setting [2]) and at Human factor Xa were 2.9 µM and above 30 µM, respectively.
Turning to `COc1ccccc1-c1c(Cl)nc(NCCc2ccccc2)c(=O)n1CC(=O)NCc1ccc(C(=N)N)cc1` [1515-26], the results for the IC50 at TF-VIIa (setting [2]) and on Human factor Xa were 1.6 µM and above 30 µM, respectively.
Turning to `N=C(N)c1ccc(CNC(=O)Cn2c(-c3sccc3Br)c(Cl)nc(NCCc3ccccc3)c2=O)cc1` [1515-27], the results for the IC50 on TF-VIIa (setting [1]) and at Human factor Xa were 1.1 µM and above 30 µM, respectively.
For `N=C(N)c1ccc(CNC(=O)Cn2c(-c3cccs3)c(Cl)nc(NCCc3ccccc3)c2=O)cc1` [1515-30], in that order: 1.2 µM and above 30 µM.
As to `N=C(N)c1ccc(CNC(=O)Cn2c(-c3cccc(F)c3)c(Cl)nc(NCCc3ccccc3)c2=O)cc1` [1515-33], the IC50 is 2.3 µM at TF-VIIa (setting [2]) and above 30 µM on Human factor Xa.
With `N=C(N)c1ccc(CNC(=O)Cn2c(-c3cccc(Br)c3)c(Cl)nc(NCCc3ccccc3)c2=O)cc1` [1515-34], the results for the IC50 on TF-VIIa (setting [1]) and at Human factor Xa were 4.4 µM and above 30 µM, respectively.
With `N=C(N)c1ccc(CNC(=O)Cn2c(-c3ccccc3F)c(Cl)nc(NCCc3ccccc3)c2=O)cc1` [1515-35], the IC50 at TF-VIIa (setting [2]) is 1.8 µM; at Human factor Xa, above 30 µM.
Consider `CCCCNc1nc(Cl)c(-c2ccccc2)n(CC(=O)NCc2ccc(C(=N)N)cc2)c1=O` [1517-35], for which the “IC50 or % Inhibition TF-VIIa (30 µM)” value at TF-VIIa (% inhibition at 30 µM) is 33%. Further, on Human factor Xa (% inhibition at 30 µM), the “IC50 or % Inhibition Factor Xa (30 µM)” value worked out at 0%.
